Laboratory results from US7928060B2, “Amylin family polypeptide-6 (AFP-6) analogs and methods of making and using them” (Amylin Pharmaceuticals, Inc., priority 2004, dated 2011).
Like-named read-outs stand apart in the source and are kept apart here. Bridge positions count the residues as written; N and C are the ends. Ends that are not written are not given here. Peptide text beside a SMILES is read from it.

What was measured:
adrenomedullin receptor = adrenomedullin receptor (Homo sapiens, UniProt O60895+Q16602); assay: adrenomedullin (ADM) receptor binding assay; settings: Table 6
amylin receptors = target: T1, amylin receptors (Rattus norvegicus, UniProt P32214); assay: amylin radioligand binding assay (125I-rat amylin, nucleus accumbens membranes); settings: Table 6; read-out: Amylin receptor binding
T1 construct: This basal forebrain tissue, containing the nucleus accumbens and surrounding regions, was weighed and homogenized; from tissue; host or cells: rat basal forebrain (nucleus accumbens) membranes, male Sprague-Dawley rats
T1 sequence (P32214 25-516): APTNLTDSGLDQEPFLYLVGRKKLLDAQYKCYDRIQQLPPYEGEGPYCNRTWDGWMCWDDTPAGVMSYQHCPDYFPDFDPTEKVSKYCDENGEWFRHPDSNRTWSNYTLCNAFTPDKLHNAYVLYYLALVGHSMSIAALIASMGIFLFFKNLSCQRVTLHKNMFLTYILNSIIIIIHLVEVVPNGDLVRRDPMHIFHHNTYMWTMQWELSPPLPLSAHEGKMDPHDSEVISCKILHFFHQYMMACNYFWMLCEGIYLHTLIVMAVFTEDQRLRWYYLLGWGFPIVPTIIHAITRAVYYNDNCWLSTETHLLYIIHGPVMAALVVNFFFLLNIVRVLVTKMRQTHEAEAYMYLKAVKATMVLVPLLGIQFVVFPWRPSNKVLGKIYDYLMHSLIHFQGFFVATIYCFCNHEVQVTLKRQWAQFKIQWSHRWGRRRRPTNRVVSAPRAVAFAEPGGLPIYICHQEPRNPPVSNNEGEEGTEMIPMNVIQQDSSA
Procedure: Unlabeled peptides were obtained from BACHEM Inc. (Torrance, Calif.).
Male Sprague-Dawley® rats (200-250) grams were sacrificed by decapitation. Brains were removed and place in cold phosphate-buffered saline (PBS). From the ventral surface, cuts were made rostral to the hypothalamus, bounded laterally by the olfactory tracts and extending at a 45° angle medially from these tracts. […] Membranes were washed three times in fresh buffer by centrifugation for 15 minutes at 48,000×g. The final membrane pellet was resuspended in 20 mM HEPES buffer containing 0.2 mM phenylmethylsulfonyl fluoride (PMSF).
Solutions were incubated for 60 minutes at 2 C. […] Filters were washed immediately before filtration with 5 ml cold PBS, and immediately after filtration with 15 ml cold PBS. […] Competition curves were generated by measuring binding in the presence of 10^−12 to 10^−6 M unlabeled test compound and were analyzed by nonlinear regression using a 4-parameter logistic equation (INPLOT program; […] Software, San Diego, Calif.).

calcitonin receptor [1] = target: T2, calcitonin receptor (Rattus norvegicus, UniProt P32214); assay: calcitonin receptor binding assay (rCalcitonin RBA); settings: Table 6; read-out: CT receptor binding
T2 sequence (P32214 25-516): T1 sequence (P32214 25-516)

calcitonin receptor [2] = assay: cAMP production in CHO cells (AlphaScreen); format: cell-based; settings: CHO, 30,000 cells/well

Chain of adrenomedullin receptor (Q16602 23-461): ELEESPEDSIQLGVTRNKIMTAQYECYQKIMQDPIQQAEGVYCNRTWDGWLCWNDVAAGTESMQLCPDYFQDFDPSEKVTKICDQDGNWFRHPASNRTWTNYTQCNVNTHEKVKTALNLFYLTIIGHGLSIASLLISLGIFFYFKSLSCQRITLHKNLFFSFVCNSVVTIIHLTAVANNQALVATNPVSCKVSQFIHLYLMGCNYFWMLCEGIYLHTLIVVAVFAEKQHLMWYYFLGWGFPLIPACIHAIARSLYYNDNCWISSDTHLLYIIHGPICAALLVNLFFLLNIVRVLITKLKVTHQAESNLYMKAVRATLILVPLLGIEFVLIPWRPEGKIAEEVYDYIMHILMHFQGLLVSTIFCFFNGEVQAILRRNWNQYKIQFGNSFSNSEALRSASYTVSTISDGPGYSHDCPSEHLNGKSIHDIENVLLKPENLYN
Chain of adrenomedullin receptor (O60895 43-175): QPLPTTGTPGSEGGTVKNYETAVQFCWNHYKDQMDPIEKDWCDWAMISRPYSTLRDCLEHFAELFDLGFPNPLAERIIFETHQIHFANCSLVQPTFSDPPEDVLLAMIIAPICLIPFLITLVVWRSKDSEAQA

Row | IC50 (adrenomedullin receptor) | IC50 (amylin receptors) | IC50 (calcitonin receptor [1]) | Compound | EC50 (calcitonin receptor [2]; average of three experiments, read-out: Average EC50) | EC50 (calcitonin receptor [2]; read-out: Experiment 1 EC50) | EC50 (calcitonin receptor [2]; read-out: Experiment 2 EC50) | EC50 (calcitonin receptor [2]; read-out: Experiment 3 EC50)
1 | ≥ 1000 nM | 39 nM | 198 nM | CC(C)C[C@H](NC(=O)[C@H](CCC(N)=O)NC(=O)[C@H](Cc1c[nH]c2ccccc12)NC(=O)[C@H](CC(C)C)NC(=O)[C@H](CCCNC(=N)N)NC(=O)[C@H](Cc1c[nH]cn1)NC(=O)[C@H](CO)NC(=O)[C@H](CC(C)C)NC(=O)[C@H](CC(N)=O)NC(=O)[C@H](CCC(N)=O)NC(=O)[C@@H](NC(=O)[C@H](CCC(N)=O)NC(=O)[C@@H]1CSSC[C@H](NC(=O)CNC(=O)[C@@H](N)C(C)C)C(=O)N[C@@H](C(C)C)C(=O)N[C@@H](CC(C)C)C(=O)NCC(=O)N[C@@H]([C@@H](C)O)C(=O)N1)C(C)C)C(=O)N[C@@H](CCCNC(=N)N)C(=O)N[C@@H](CCC(N)=O)C(=O)N[C@@H](CC(=O)O)C(=O)N[C@@H](CO)C(=O)N[C@@H](C)C(=O)N1CCC[C@H]1C(=O)N[C@H](C(=O)N[C@@H](CCC(=O)O)C(=O)N1CCC[C@H]1C(=O)N[C@@H](CO)C(=O)N[C@@H](CO)C(=O)N1CCC[C@H]1C(=O)N[C@@H](Cc1c[nH]cn1)C(=O)N[C@@H](CO)C(=O)N[C@@H](Cc1ccc(O)cc1)C(N)=O)C(C)C [compound 36] (H-VGCVLGTCQVQNLSHRLWQLRQDSAPVEPSSPHSY-NH2; disulfide 3-8 (inferred)) | – | – | – | –
2 | 37 nM | 17 nM | 153 nM | CSCC[C@H](NC(=O)[C@H](CC(C)C)NC(=O)[C@H](CCC(N)=O)NC(=O)[C@H](Cc1c[nH]c2ccccc12)NC(=O)[C@H](CC(C)C)NC(=O)[C@H](CCCNC(=N)N)NC(=O)[C@H](Cc1c[nH]cn1)NC(=O)[C@H](CO)NC(=O)[C@H](CC(C)C)NC(=O)[C@H](CC(N)=O)NC(=O)[C@H](CCC(N)=O)NC(=O)[C@@H](NC(=O)[C@H](CCC(N)=O)NC(=O)[C@@H]1CSSC[C@H](NC(=O)CNC(=O)[C@@H](N)C(C)C)C(=O)N[C@@H](C(C)C)C(=O)N[C@@H](CC(C)C)C(=O)NCC(=O)N[C@@H]([C@@H](C)O)C(=O)N1)C(C)C)C(=O)NCC(=O)N1CCC[C@H]1C(=O)N[C@@H](C)C(=O)NCC(=O)N[C@@H](CCCNC(=N)N)C(=O)N[C@@H](CCC(N)=O)C(=O)N[C@@H](CC(=O)O)C(=O)N[C@@H](CO)C(=O)N[C@@H](C)C(=O)N1CCC[C@H]1C(=O)N[C@H](C(=O)N[C@@H](CCC(=O)O)C(=O)N1CCC[C@H]1C(=O)N[C@@H](CO)C(=O)N[C@@H](CO)C(=O)N1CCC[C@H]1C(=O)N[C@@H](Cc1c[nH]cn1)C(=O)N[C@@H](CO)C(=O)N[C@@H](Cc1ccc(O)cc1)C(N)=O)C(C)C [compound 35] (H-VGCVLGTCQVQNLSHRLWQLMGPAGRQDSAPVEPSSPHSY-NH2; disulfide 3-8 (inferred)) | – | – | – | –
3 | – | – | – | CC[C@H](C)[C@H](NC(=O)[C@H](C)NC(=O)[C@@H](NC(=O)[C@H](CCC(N)=O)NC(=O)[C@@H]1CCCN1C(=O)[C@H](Cc1ccccc1)NC(=O)[C@@H](NC(=O)[C@H](Cc1c[nH]cn1)NC(=O)[C@H](Cc1ccccc1)NC(=O)[C@H](CCCCN)NC(=O)[C@H](CC(N)=O)NC(=O)[C@H](Cc1ccccc1)NC(=O)[C@H](CC(=O)O)NC(=O)[C@H](CCC(N)=O)NC(=O)[C@@H](NC(=O)[C@H](Cc1ccc(O)cc1)NC(=O)[C@@H](NC(=O)CNC(=O)[C@H](CC(C)C)NC(=O)[C@H](CCSC)NC(=O)[C@@H]1CSSC[C@H](N)C(=O)NCC(=O)N[C@@H](CC(N)=O)C(=O)N[C@@H](CC(C)C)C(=O)N[C@@H](CO)C(=O)N[C@@H]([C@@H](C)O)C(=O)N1)[C@@H](C)O)[C@@H](C)O)[C@@H](C)O)[C@@H](C)O)C(=O)NCC(=O)N[C@H](C(=O)NCC(=O)N[C@@H](C)C(=O)N1CCC[C@H]1C(N)=O)C(C)C [SEQ ID NO: 6] | 0.097 nM | 0.077 nM | 0.14 nM | 0.075 nM
4 | ≥ 1000 nM | 39 nM | 121 nM | CC(C)C[C@H](NC(=O)[C@H](CCC(N)=O)NC(=O)[C@H](Cc1c[nH]c2ccccc12)NC(=O)[C@H](CC(C)C)NC(=O)[C@H](CCCNC(=N)N)NC(=O)[C@H](Cc1c[nH]cn1)NC(=O)[C@H](CO)NC(=O)[C@H](CC(C)C)NC(=O)[C@H](CC(N)=O)NC(=O)[C@H](CCC(N)=O)NC(=O)[C@@H](NC(=O)[C@H](CCC(N)=O)NC(=O)[C@@H]1CSSC[C@H](NC(=O)CN)C(=O)N[C@@H](CC(N)=O)C(=O)N[C@@H]([C@@H](C)O)C(=O)N[C@@H](C)C(=O)N[C@@H]([C@@H](C)O)C(=O)N1)C(C)C)C(=O)N[C@@H](CCCNC(=N)N)C(=O)N[C@@H](CCC(N)=O)C(=O)N[C@@H](CC(=O)O)C(=O)N[C@@H](CO)C(=O)N[C@@H](C)C(=O)N1CCC[C@H]1C(=O)N[C@H](C(=O)N[C@@H](CCC(=O)O)C(=O)N1CCC[C@H]1C(=O)N[C@@H](CO)C(=O)N[C@@H](CO)C(=O)N1CCC[C@H]1C(=O)N[C@@H](Cc1c[nH]cn1)C(=O)N[C@@H](CO)C(=O)N[C@@H](Cc1ccc(O)cc1)C(N)=O)C(C)C [compound 37] (H-GCNTATCQVQNLSHRLWQLRQDSAPVEPSSPHSY-NH2; disulfide 2-7 (inferred); N-terminus assumed) | – | – | – | –
5 | 6.4 nM | 12 nM | 24 nM | CSCC[C@H](NC(=O)[C@H](CC(C)C)NC(=O)[C@H](CCC(N)=O)NC(=O)[C@H](Cc1c[nH]c2ccccc12)NC(=O)[C@H](CC(C)C)NC(=O)[C@H](CCCNC(=N)N)NC(=O)[C@H](Cc1c[nH]cn1)NC(=O)[C@H](CO)NC(=O)[C@H](CC(C)C)NC(=O)[C@H](CC(N)=O)NC(=O)[C@H](CCC(N)=O)NC(=O)[C@@H](NC(=O)[C@H](CCC(N)=O)NC(=O)[C@@H]1CSSC[C@H](NC(=O)CNC(=O)[C@@H](N)C(C)C)C(=O)N[C@@H](C(C)C)C(=O)N[C@@H](CC(C)C)C(=O)NCC(=O)N[C@@H]([C@@H](C)O)C(=O)N1)C(C)C)C(=O)NCC(=O)N1CCC[C@H]1C(=O)N[C@@H](C)C(=O)NCC(=O)N[C@@H](CCCNC(=N)N)C(=O)N[C@@H](CCC(N)=O)C(=O)N[C@@H](CC(=O)O)C(=O)N[C@@H](CO)C(=O)N[C@@H](C)C(=O)N1CCC[C@H]1C(=O)N[C@H](C(=O)N[C@@H](CC(=O)O)C(=O)N1CCC[C@H]1C(=O)N[C@@H](CO)C(=O)N[C@@H](CO)C(=O)N1CCC[C@H]1C(=O)N[C@@H](Cc1c[nH]cn1)C(=O)N[C@@H](CO)C(=O)N[C@@H](Cc1ccc(O)cc1)C(N)=O)C(C)C [compound 2] | – | – | – | –
6 | 7.1 nM | 16 nM | – | TQAQLLRVGCVLGTCQVQNLSHRLWQLMGPAGRQESAPVEPSSPHSY-NH2 (disulfide 10-15 (inferred)) [compound 32] | – | – | – | –
7 | 47 nM | – | 17 nM | TQAQLLRVGCNTATCQVQNLSHRLWQLMGPAGRQDSAPVDPSSPHSY-NH2 (disulfide 10-15 (inferred)) [compound 21] | – | – | – | –
8 | 7.1 nM | – | 55 nM | CSCC[C@H](NC(=O)[C@H](CC(C)C)NC(=O)[C@H](CCC(N)=O)NC(=O)[C@H](Cc1c[nH]c2ccccc12)NC(=O)[C@H](CC(C)C)NC(=O)[C@H](CCCNC(=N)N)NC(=O)[C@H](Cc1c[nH]cn1)NC(=O)[C@H](CO)NC(=O)[C@H](CC(C)C)NC(=O)[C@H](CC(N)=O)NC(=O)[C@H](CCC(N)=O)NC(=O)[C@@H](NC(=O)[C@H](CCC(N)=O)NC(=O)[C@@H]1CSSC[C@H](NC(=O)CNC(=O)[C@@H](NC(=O)[C@@H](N)CCCNC(=N)N)C(C)C)C(=O)N[C@@H](C(C)C)C(=O)N[C@@H](CC(C)C)C(=O)NCC(=O)N[C@@H]([C@@H](C)O)C(=O)N1)C(C)C)C(=O)NCC(=O)N1CCC[C@H]1C(=O)N[C@@H](C)C(=O)NCC(=O)N[C@@H](CCCNC(=N)N)C(=O)N[C@@H](CCC(N)=O)C(=O)N[C@@H](CC(=O)O)C(=O)N[C@@H](CO)C(=O)N[C@@H](C)C(=O)N1CCC[C@H]1C(=O)N[C@H](C(=O)N[C@@H](CC(=O)O)C(=O)N1CCC[C@H]1C(=O)N[C@@H](CO)C(=O)N[C@@H](CO)C(=O)N1CCC[C@H]1C(=O)N[C@@H](Cc1c[nH]cn1)C(=O)N[C@@H](CO)C(=O)N[C@@H](Cc1ccc(O)cc1)C(N)=O)C(C)C [compound 10] | – | – | – | –
